Source: patent US8772237B2, “Compositions and methods for counteracting effects of reactive oxygen species and free radicals” (Ischemix, Inc., priority 1999, dated 2014)
Ends that are not written are not given here.

Assays:
[1] = tested on: superoxide dismutase (SOD) protein; experiment: Western immunoblot of SOD protein in rat brain primary cortical cultures; format: cell-based; conditions: Dose 6.7 pmol/ml, 5 hours at 37° C.
Experimental: Primary cortical cultures were obtained by growing newborn rat brain cortical cells in Delbecco's modified Eagle medium supplemented with 25 μg/ml of gentamycin and 10% fetal calf serum. The cells were isolated from the E-21 cortex of rat brain, plated at a density of 1×10^5 per ml and grown to confluence within four to five days in an atmosphere containing air and 5% CO2 at 37° C. as described in Cornell-Bell et al., Science, 247: 470-473 (1990) and Cell Calcium, 12: 185-204 (1991). Cultures were grown in 20 ml flasks as a monolayer and then exposed to various concentrations of peptides for studies of the effects of peptides on upregulation of genes for SOD and CAT and on the transmigration of transcription factor AP-1 to cell nuclei. […]
Tissue culture experiments were carried out using primary cultures of rat brain cortical cells as previously described above in Example 2. Primary cultures from embryonic rat brain isolated at E-21 (21 day embryos) and incubated for five hours with various doses: 1, 10, 100 ng/ml of CMX-99672. Cytoplasmic proteins were isolated and analyzed for upregulation of SOD and CAT by Western immunoblots as described above. […] The Western blot was scanned to quantify the fold-increase in SOD production in cell cultures treated with the CMX-99672 peptide compound.
Representative peptide compounds were tested at various doses and compared for their ability to upregulate expression of genes for SOD and/or CAT in rat primary cortical cultures basically as described above. Cultures were incubated with a peptide compound for 5 hours at 37° C. Cytoplasmic protein fractions were prepared as described above. Cytoplasmic proteins were separated by gel electrophoresis and analyzed by Western immunoblots using antisera to SOD and CAT, respectively (Rockland, Inc., Gilbertsville, Pa.). […]

[2] = tested on: middle cerebral artery (MCA) permanent occlusion stroke model; experiment: Permanent MCA 24-hour occlusion stroke model; format: in vivo, Sprague-Dawley rats
Experimental: The in vivo neuroprotective effects of CMX-9236 were investigated in both temporary and permanent occlusion stroke models in Sprague-Dawley rats using an intraluminal suture of the middle cerebral artery (MCA) occlusion method (Zea Longa et al., Stroke, 20: 84 (1989)). Briefly, a 4-0 silicone-coated suture was inserted through the right common carotid artery to block the MCA orifice. In the temporary model, CMX-9236 (6.2 mg/kg/hr) or vehicle was administered via the femoral vein at 30 minutes after the start of a 2-hour occlusion for a 4-hour continuous infusion; the rats were then reperfused by withdrawing the suture at […] after the MCA occlusion. All experiments were performed in a blinded and randomized manner, and rectal temperature was maintained at 37° C. The animals were sacrificed, and their brains were removed, sectioned into six 2-mm-thick coronal slices and stained with 2,3,5-triphenyltetrazolium chloride solution (Bederson et al., Stroke, 17:1304 (1986)) to visualize the extent of brain damage for the calculation of the corrected hemispheric infarct volumes (Nagasawa and Kogure, Stroke, 20:1037 (1989); Li et al., J. Cereb. Blood Flow Metab., 17:1132 (1997)). […] This represents a significant reduction of infarct size (35±5%, p=0.01, student t-test) for the CMX-9236-treated group in the temporary occlusion model. There was also a 58+11% improvement in the neurological scoring (Minematsu et al., Neurology, 42:235 (1992)) for the peptide-treated group versus controls at the end of 24 hours.
In the permanent occlusion stroke model, the blood flow to the MCA territory was blocked for the total 24-hour period. A continuous i.v. infusion (0.5 ml/hr) of the CMX-9236 peptide (2.04 mg/kg/hr) or vehicle was initiated at 30 minutes after occlusion for 6 hours, followed by a bolus i.v. infusion of CMX-9236 (4.0 mg/kg in 0.5 ml delivered over 10 minutes) or vehicle at 12 hours after occlusion. The corrected infarct volumes were 127.5±18 mm^3 versus 216±18 mm^3 for drug-treated animals and controls, respectively. This represents a significant decrease (41±5%, p=0.003, student t-test) in infarct size for the drug-treated group as compared to the vehicle-treated control group (n=10 per group) in the permanent model, indicating a substantial rescue of brain tissue. These findings indicate that CMX-9236 has neuroprotective properties post-trauma in vivo, reducing the brain damage generated by cerebral ischemia.

[3] = tested on: superoxide dismutase-1 (SOD-1) mRNA; experiment: RT-PCR upregulation of SOD-1 mRNA in rat primary cortical cell cultures; format: cell-based; conditions: 100 ng/ml
Experimental: The RT-PCR method (see, for example, Innis et al., PCR Protocols: A Guide to Methods and Applications, (Academic Press, San Diego, 1990)) was used to investigate the upregulation of the specific mRNA that codes for the enzyme superoxide dismutase (SOD).
Primary cortical cultures were obtained by growing newborn rat brain cortical cells in Delbecco's modified Eagle medium supplemented with 25 μg/ml of gentamycin and 10% fetal calf serum. The cells were isolated from the E-21 cortex of rat brain, plated at a density of 1×10^5 per ml and grown to confluence within four to five days in an atmosphere containing air and 5% CO2 at 37° C. as described in Cornell-Bell et al., Science, 247: 470-473 (1990) and Cell Calcium, 12: 185-204 (1991). Cultures were grown in 20 ml flasks as a monolayer and then exposed to various concentrations of peptides for studies of the effects of peptides on upregulation of genes for SOD and CAT and on the transmigration of transcription factor AP-1 to cell nuclei.
Primary cultures of rat brain cortical cells were incubated with 100 ng/ml of peptide compound CMX-9236 for durations of 0 to 48 hours. mRNA was isolated from the cytoplasmic fraction of lysed cells according to standard methods (Angel et al., Cell 49:729-739, 1987). The RNA was incubated according to the RT-PCR protocol with two strands, 20 nucleotides long, one for the sense and one from the antisense strand. The sequences were selected to be unique for superoxide dismutase-1 (SOD-1), and to span one intron segment. […] The sequence of the two probe segments of the oligo dT segments for SOD are as follows: anti-sense strand, […] (SEQ ID NO:29), and sense strand, […] (SEQ ID NO:30). These span a sequence of 208 base pairs (bp) on the primary SOD sequence. The mixture was then treated with reverse transcriptase to obtain the cDNA according to standard PCR methods. The cDNA was then analyzed by electrophoresis and separated according to sequence lengths on a non-denaturing 5% polyacrylamide gel. The electrophoretically separated molecules were treated with ethidium bromide to stain double-stranded DNA fragments. These were visualized by ultraviolet illumination and photographed. The gels were then analyzed by a laser scanning fluorescence detector to quantitate the amount of messenger RNA for the extent of upregulation of SOD message and its time course of synthesis as a function of stimulation by CMX-9236. Similar methods of analysis were used for other peptides.

KKDGDGDFAIDAPE [CMX-9236, uncapped peptide]
SOD [1]: 466 % Control | corrected infarct volume ([2]; 2.04 mg/kg/hr i.v. for 6 hours from 30 min, plus 4.0 mg/kg bolus at 12 hours, n=10): 127.5±18 mm^3 | decrease in infarct size vs vehicle ([2]; 2.04 mg/kg/hr infusion plus 4.0 mg/kg bolus, p=0.003): 41±5% | time until SOD-1 mRNA stimulation returns to control levels [3]: ≤ 24 h | upregulation of SOD-1 mRNA transcripts ([3]; rat primary cortical cells, 3 hours incubation): 9 fold
